# Read-outs that look alike come from different tables or passages of the source.
# What was measured:
# rCTR1 [1] = biological target: T1, rCTR1 (Arabidopsis thaliana, UniProt Q05609); assay: microscale thermophoresis; format: binding
# T1 construct: gene CTR1; full-length CTR1 coding region, N-terminal GST fusion (pGEX-6P-1), E. coli BL21 (DE3); tag kept (detected by anti-GST)
# T1 sequence (Q05609 1-821): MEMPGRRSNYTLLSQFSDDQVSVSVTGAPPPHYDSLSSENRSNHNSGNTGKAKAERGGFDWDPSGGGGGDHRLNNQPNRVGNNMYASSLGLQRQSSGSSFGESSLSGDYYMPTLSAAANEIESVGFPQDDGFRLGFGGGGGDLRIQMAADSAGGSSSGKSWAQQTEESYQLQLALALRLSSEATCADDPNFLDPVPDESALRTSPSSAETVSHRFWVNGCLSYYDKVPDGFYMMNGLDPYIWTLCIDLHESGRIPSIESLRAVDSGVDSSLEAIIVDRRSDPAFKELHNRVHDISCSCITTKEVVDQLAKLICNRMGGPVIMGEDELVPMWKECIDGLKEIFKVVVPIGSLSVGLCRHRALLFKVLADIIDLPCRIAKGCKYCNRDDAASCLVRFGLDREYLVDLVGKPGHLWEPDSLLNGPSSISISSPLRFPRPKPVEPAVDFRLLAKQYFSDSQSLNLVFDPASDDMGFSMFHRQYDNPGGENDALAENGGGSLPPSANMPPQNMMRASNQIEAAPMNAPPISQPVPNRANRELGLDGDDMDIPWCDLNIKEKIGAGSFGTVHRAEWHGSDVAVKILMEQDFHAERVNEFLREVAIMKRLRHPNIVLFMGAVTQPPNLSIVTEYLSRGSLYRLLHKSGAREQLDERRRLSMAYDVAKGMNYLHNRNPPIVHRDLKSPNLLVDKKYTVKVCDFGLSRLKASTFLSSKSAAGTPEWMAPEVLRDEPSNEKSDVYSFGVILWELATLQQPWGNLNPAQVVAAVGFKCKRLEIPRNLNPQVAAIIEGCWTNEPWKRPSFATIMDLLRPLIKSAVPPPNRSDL
# Source text: microscale thermophoresis on rCTR1
# rCTR1-K [2] = biological target: T2, rCTR1-K (Arabidopsis thaliana, UniProt Q05609); assay: microscale thermophoresis; format: binding; details: liposomes of the lipid, 10 nM RED-labelled protein, 50 mM Tris-HCl pH 7.4, 150 mM NaCl, 10 mM MgCl2, 0.05% Tween-20
# T2 construct: gene CTR1; tag kept
# Source text: microscale thermophoresis on rCTR1-K
# rCTR1-K [3] = biological target: T2, rCTR1-K; assay: TR-FRET kinase assay (HTRF KinEASE, STK Substrate 2-biotin); format: biochemical; details: liposomes pre-incubated 30 min at 4°C; 100 μM ATP, 1 μM STK Substrate 2-biotin; room temperature; inhibition
# rCTR1 [4] = biological target: T1, rCTR1; assay: as above; format: biochemical; details: liposomes pre-incubated 30 min at 4°C; 100 μM ATP, 1 μM STK Substrate 2-biotin; room temperature; inhibition
# [5] = read-out: Dissociation Constants (K d) / 24:1-Cer
compound,measurement,setting,value
24:0-Cer,Kd,"rCTR1 [1]; liposomes of the lipid, 10 nM RED-labelled protein, 50 mM Tris-HCl pH 7.4, 150 mM NaCl, 10 mM MgCl2, 0.05% Tween-20, read-out: Dissociation Constants (K d) / 24:0-Cer",10.8 ± 1.3 µM
same,Kd,rCTR1-K [2]; read-out: Dissociation Constants (K d) / 24:0-Cer,4.3 ± 1.3 µM
18:0-Cer,Kd,"rCTR1 [1]; liposomes of the lipid, 10 nM RED-labelled protein, 50 mM Tris-HCl pH 7.4, 150 mM NaCl, 10 mM MgCl2, 0.05% Tween-20, highest liposome concentration 50 μM, no binding seen on filters, read-out: Dissociation Constants (K d) / 18:0-Cer",50.6 ± 5.2 µM
same,Kd,rCTR1-K [2]; read-out: Dissociation Constants (K d) / 18:0-Cer,49.3 ± 7 µM
CCCCCCCC/C=C\CCCCCCCCCCCCCC(=O)N[C@@H](CO)[C@H](O)/C=C/CCCCCCCCCCCCC [24:1-Cer],Kd,rCTR1 [1]; [5],1.6 ± 0.1 µM
same,relative CTR1 activity at 1 nM,rCTR1-K [3],both rCTR1 and rCTR1-K proteins exhibited decreased kinase activities
same,Kd,rCTR1-K [2]; [5],1 ± 0.1 µM
same,relative CTR1 activity at 1 nM,rCTR1 [4],both rCTR1 and rCTR1-K proteins exhibited decreased kinase activities

# From PMC4379176, “Unsaturation of Very-Long-Chain Ceramides Protects Plant from Hypoxia-Induced Damages by Modulating Ethylene Signaling in Arabidopsis” (PLoS Genetics, 2015)
